Laboratory results published in PubChem BioAssay AID1963828 (Molecular Pharmacology Branch, DTP, NCI, 2024).

Test system: 991263-137-R1-J2-PDC complex spheroid viability
Assay: Anticancer human tumor 991263-137-R1-J2-PDC patient-derived colon adenocarcinoma cell line growth inhibition [POLQ]
Settings: for IC50: curve of first compound; for viability, T/C: stronger effect = lower value
In short: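 Complex spheroid viability model combining PDC tumour cells with endothelial (HUVEC) and MSC stromal cells. Novobiocin, ART-558 or RP6685 were tested singly and in combination with standard and investigational anticancer drugs. Each was titrated in half-log steps from near clinical Cmax, or from 10 microM where Cmax was unknown.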

[1] = second compound 0.0316 µM, first compound 0.0316 µM
[2] = second compound 0.0316 µM, first compound 0.1 µM
[3] = second compound 0.0316 µM, first compound 0.316 µM
[4] = second compound 0.0316 µM, first compound 1 µM
[5] = second compound 0.1 µM, first compound 0.0316 µM
[6] = second compound 0.1 µM, first compound 0.1 µM
[7] = second compound 0.1 µM, first compound 0.316 µM
[8] = second compound 0.1 µM, first compound 1 µM
[9] = second compound 0.316 µM, first compound 0.0316 µM
[10] = second compound 0.316 µM, first compound 0.1 µM
[11] = second compound 0.316 µM, first compound 0.316 µM
[12] = second compound 0.316 µM, first compound 1 µM
[13] = second compound 1 µM, first compound 0.0316 µM
[14] = second compound 1 µM, first compound 0.1 µM
[15] = second compound 1 µM, first compound 0.316 µM
[16] = second compound 1 µM, first compound 1 µM
[17] = second compound 3.16 µM, first compound 0.0316 µM
[18] = second compound 3.16 µM, first compound 0.1 µM
[19] = second compound 3.16 µM, first compound 0.316 µM
[20] = second compound 3.16 µM, first compound 1 µM
[21] = second compound 10 µM, first compound 0.0316 µM
[22] = second compound 10 µM, first compound 0.1 µM
[23] = second compound 10 µM, first compound 0.316 µM
[24] = second compound 10 µM, first compound 1 µM
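Further: spheroids exposed to compounds for 7 days before readout.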
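Wherever viability, T/C is given: 100% = DMSO vehicle control viability.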

COc1cccc2c1C(=O)c1c(O)c3c(c(O)c1C2=O)CC(O)(C(=O)CO)CC3OC1CC(N)C(O)C(C)O1 (centres undefined) + Cc1cccc(N(C)C(=O)C2C(O)CCN2c2nc(C)cc(C(F)(F)F)c2C#N)c1
IC50 (second compound 0.0316 µM): 1410 nM | IC50 (second compound 0.1 µM): 1850 nM | IC50 (second compound 0.316 µM): 1740 nM | IC50 (second compound 1 µM): 976 nM | IC50 (second compound 3.16 µM): 1010 nM | IC50 (second compound 10 µM): 790 nM | viability, T/C [1]: 90.1% | viability, T/C [2]: 99.4% | viability, T/C [3]: 79.1% | viability, T/C [4]: 55.9% | viability, T/C (second compound 0.0316 µM, first compound 3.16 µM): 38.5% | viability, T/C (second compound 0.0316 µM, first compound 10 µM): 35.3% | viability, T/C [5]: 105% | viability, T/C [6]: 91.9% | viability, T/C [7]: 92.2% | viability, T/C [8]: 56.7% | viability, T/C (second compound 0.1 µM, first compound 3.16 µM): 46.2% | viability, T/C (second compound 0.1 µM, first compound 10 µM): 33.8% | viability, T/C [9]: 114% | viability, T/C [10]: 99.4% | viability, T/C [11]: 94.8% | viability, T/C [12]: 57.2% | viability, T/C (second compound 0.316 µM, first compound 3.16 µM): 41.7% | viability, T/C (second compound 0.316 µM, first compound 10 µM): 34.1% | viability, T/C [13]: 92.8% | viability, T/C [14]: 95.4% | viability, T/C [15]: 102% | viability, T/C [16]: 48.9% | viability, T/C (second compound 1 µM, first compound 3.16 µM): 44.3% | viability, T/C (second compound 1 µM, first compound 10 µM): 27.6% | viability, T/C [17]: 99.6% | viability, T/C [18]: 107% | viability, T/C [19]: 74.2% | viability, T/C [20]: 51.8% | viability, T/C (second compound 3.16 µM, first compound 3.16 µM): 36.4% | viability, T/C (second compound 3.16 µM, first compound 10 µM): 26.9% | viability, T/C [21]: 97.1% | viability, T/C [22]: 78.3% | viability, T/C [23]: 68.9% | viability, T/C [24]: 40.8% | viability, T/C (second compound 10 µM, first compound 3.16 µM): 33.7% | viability, T/C (second compound 10 µM, first compound 10 µM): 15.7%

C=CCn1c(=O)c2cnc(Nc3ccc(N4CCN(C)CC4)cc3)nc2n1-c1cccc(C(C)(C)O)n1 + COC1C(OC(N)=O)C(O)C(Oc2ccc3c(O)c(NC(=O)c4ccc(O)c(CC=C(C)C)c4)c(=O)oc3c2C)OC1(C)C
IC50 (second compound 0.0316 µM): > 1000 nM | IC50 (second compound 0.1 µM): > 1000 nM | IC50 (second compound 0.316 µM): > 1000 nM | IC50 (second compound 1 µM): > 1000 nM | IC50 (second compound 3.16 µM): > 1000 nM | IC50 (second compound 10 µM): > 1000 nM | viability, T/C (second compound 0.0316 µM, first compound 0.00316 µM): 116% | viability, T/C (second compound 0.0316 µM, first compound 0.01 µM): 115% | viability, T/C [1]: 105% | viability, T/C [2]: 107% | viability, T/C [3]: 95.6% | viability, T/C [4]: 101% | viability, T/C (second compound 0.1 µM, first compound 0.00316 µM): 94.2% | viability, T/C (second compound 0.1 µM, first compound 0.01 µM): 109% | viability, T/C [5]: 91.1% | viability, T/C [6]: 97% | viability, T/C [7]: 108% | viability, T/C [8]: 77.4% | viability, T/C (second compound 0.316 µM, first compound 0.00316 µM): 102% | viability, T/C (second compound 0.316 µM, first compound 0.01 µM): 110% | viability, T/C [9]: 92.6% | viability, T/C [10]: 97.8% | viability, T/C [11]: 100% | viability, T/C [12]: 108% | viability, T/C (second compound 1 µM, first compound 0.00316 µM): 85.1% | viability, T/C (second compound 1 µM, first compound 0.01 µM): 100% | viability, T/C [13]: 96.8% | viability, T/C [14]: 98.7% | viability, T/C [15]: 104% | viability, T/C [16]: 98% | viability, T/C (second compound 3.16 µM, first compound 0.00316 µM): 111% | viability, T/C (second compound 3.16 µM, first compound 0.01 µM): 81.2% | viability, T/C [17]: 119% | viability, T/C [18]: 105% | viability, T/C [19]: 115% | viability, T/C [20]: 93.4% | viability, T/C (second compound 10 µM, first compound 0.00316 µM): 98.1% | viability, T/C (second compound 10 µM, first compound 0.01 µM): 107% | viability, T/C [21]: 102% | viability, T/C [22]: 92.5% | viability, T/C [23]: 110% | viability, T/C [24]: 105%
